Test results as given in patent publication US7291621B2, “Substituted biaryl amides C5a receptor modulators” (Neurogen Corporation, priority 2002, dated 2007).
Like-named read-outs stand apart in the source and are kept apart here.

Molecular target: T1, C5a receptor (Homo sapiens, UniProt P21730)
T1 construct: endogenous in cells; host or cells: U937 cells differentiated with 1 mM dibutyryl cAMP
T1 sequence (P21730 1-350): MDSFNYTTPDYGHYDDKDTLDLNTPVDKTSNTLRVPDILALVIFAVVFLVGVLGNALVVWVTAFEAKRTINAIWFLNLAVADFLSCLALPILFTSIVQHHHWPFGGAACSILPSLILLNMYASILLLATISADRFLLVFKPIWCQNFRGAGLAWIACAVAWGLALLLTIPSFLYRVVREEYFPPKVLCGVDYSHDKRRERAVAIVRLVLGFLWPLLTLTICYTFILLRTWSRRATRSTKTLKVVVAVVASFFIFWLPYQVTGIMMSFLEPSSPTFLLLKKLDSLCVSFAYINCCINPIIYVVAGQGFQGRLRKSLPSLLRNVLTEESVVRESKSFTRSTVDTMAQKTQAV
Test: standard assay of C5a receptor mediated calcium mobilization
Format: cell-based
Conditions: asterisk = tested in C5a receptor mediated calcium mobilization assay, read-out: Ca2+ Mob.
Protocol: U937 cells are grown in differentiation media (1 mM dibutyrl cAMP in RPMI 1640 medium containing 10% fetal bovine serum) for 48 hrs at 37° C. then reseeded onto 96-well plates suitable for use in a FLIPR™ Plate Reader (Molecular Devices Corp., Sunnyvale Calif.). Cells are grown an additional 24 hours (to 70-90% confluence) before the assay. The cells are then washed once with Krebs Ringer solution. FLUO-3 calcium sensitive dye (Molecular Probes, Inc. Eugene, Oreg.) is added to 10 μg/mL and incubated with the cells at room temperature for 1 to 2 hours. The 96 well plates are then washed to remove excess dye. Fluorescence responses, measured by excitation at 480 nm and emission at 530 nm, are monitored upon the addition of human C5a to the cells to a final concentration of 0.01-30.0 nM, using the FLIPR™ device (Molecular Devices).
The calcium mobilization assay described above may be readily adapted for identifying test compounds that have agonist or antagonist activity at the human C5a receptor.
For example, in order to identify antagonist compounds, differentiated U937 cells are washed and incubated with Fluo-3 dye as described above. One hour prior to measuring the fluorescence signal, a subset of the cells is incubated with 1 μM of at least one compound to be tested. The fluorescence response upon the subsequent addition of 0.3 nM (final concentration) human recombinant C5a is monitored using the FLIPR™ plate reader. Antagonist compounds elicit at least a 2-fold decrease in the fluorescence response relative to that measured in the presence of human C5a alone. Preferred antagonist compounds elicit at least a 5-fold, preferably at least a 10-fold, and more preferably at least a 20-fold decrease in the fluorescence response relative to that measured in the presence of human C5a alone.

Row | SMILES | Ki (Table I) [µM] | Ki (Table III) [µM]
1 | O=C(c1ccccc1-c1cc(Cl)cc(Cl)c1)N(Cc1ccccc1)Cc1ccccc1 [compound 56, N,N-dibenzyl-3′,5′-dichloro-1,1′-biphenyl-2-carboxamide] | < 1 | –
2 | O=C(c1ccccc1-c1cccs1)N(Cc1ccccc1)C1Cc2ccccc2C1 [compound 63, N-benzyl-N-(indan-2-yl)-2-thien-2-ylbenzamide] | < 1 | –
3 | O=C(c1cc(Cl)ccc1-c1ccccc1)N(Cc1ccccc1)Cc1ccc2c(c1)OCC2 [compound 144, N-benzyl-4-chloro-N-(2,3-dihydro-1-benzofuran-6-ylmethyl)-1,1′-biphenyl-2-carboxamide] | < 1 | –
4 | Cc1ccc(-c2ccccc2C(=O)N(Cc2ccccc2C)C2Cc3ccccc3C2)cc1 [compound 100, N-(indan-2-yl)-4′-methyl-N-(2-methylbenzyl)-1,1′-biphenyl-2-carboxamide] | < 1 | –
5 | COc1ccc(CN(C(=O)c2c(C)cccc2-c2ccccc2)C2Cc3ccccc3C2)cc1 [compound 128, N-(indan-2-yl)-N-(4-methoxybenzyl)-3-methyl-1,1′-biphenyl-2-carboxamide] | < 1 | –
6 | O=C(c1ccccc1-c1ccccc1Cl)N(Cc1ccccc1)Cc1ccccc1 [compound 48, N,N-dibenzyl-2′-chloro-1,1′-biphenyl-2-carboxamide] | < 1 | –
7 | CSc1ccccc1-c1ccccc1C(=O)N(Cc1ccccc1)Cc1ccccc1 [compound 37, N,N-dibenzyl-2′-(methylthio)-1,1′-biphenyl-2-carboxamide] | < 1 | –
8 | O=C(c1c(-c2ccccc2)ccc2ccccc12)N(Cc1ccccc1F)C1Cc2ccccc2C1 [compound 239, 2-Phenyl-naphthalene-1-carboxylic acid (2-fluoro-benzyl)-indan-2-yl-amide] | – | < 1
9 | COc1ccc(-c2ccccc2)c(C(=O)N(Cc2ccc(C)cc2)C2Cc3ccccc3C2)c1 [compound 107, N-(indan-2-yl)-4-methoxy-N-(4-methylbenzyl)-1,1′-biphenyl-2-carboxamide] | < 1 | –
10 | COc1ccc(CN(C(=O)c2ccccc2-c2ccsc2)C2Cc3ccccc3C2)cc1 [compound 83, N-(indan-2-yl)-N-(4-methoxybenzyl)-2-thien-3-ylbenzamide] | < 1 | –
11 | Cc1ccc(CN(C(=O)c2c(-c3ccccc3)ccc3ccccc23)C2Cc3ccccc3C2)cc1 [compound 240, 2-Phenyl-naphthalene 1-carboxylic acid (4-methyl-benzyl)-indan-2-yl-amide] | – | < 1
12 | Cc1cccc(-c2ccccc2)c1C(=O)N(Cc1ccccc1F)C1Cc2ccccc2C1 [compound 123, N-(indan-2-yl)-N-(2-fluorobenzyl)-3-methyl-1,1′-biphenyl-2-carboxamide] | < 1 | –
13 | O=C(c1cc(Cl)ccc1-c1ccccc1)N(Cc1ccc2c(c1)OCO2)C1Cc2ccccc2C1 [compound 139, N-(1,3-benzodioxol-5-ylmethyl)-4-chloro-N-(indan-2-yl)-1,1′-biphenyl-2-carboxamide] | < 1 | –
14 | COc1ccc2ccccc2c1C(=O)N(Cc1ccccc1)Cc1cc(C)c(O)c(C)c1 [compound 217, N-benzyl-N-(4-hydroxy-3,5-dimethylbenzyl)-2-methoxy-1-naphthamide] | – | < 1
15 | COc1cccc(CN(C(=O)c2cc(OC)ccc2-c2ccc(C)s2)C2Cc3ccccc3C2)c1 [compound 102, N-(indan-2-yl)-5-methoxy-N-(3-methoxybenzyl)-2-(5-methylthien-2-yl)benzamide] | < 1 | –
16 | COc1ccc(-c2ccccc2)c(C(=O)N(Cc2ccc(F)c(F)c2)C2Cc3ccccc3C2)c1 [compound 111, N-(3,4-difluorobenzyl)-N-(indan-2-yl)-4-methoxy-1,1′-biphenyl-2-carboxamide] | < 1 | –
17 | COc1cccc(-c2ccccc2)c1C(=O)N(Cc1ccccc1)C1Cc2ccccc2C1 [compound 67, N-benzyl-N-(indan-2-yl)-3-methoxy-1,1′-biphenyl-2-carboxamide] | < 1 | –
18 | O=C(c1cccc2c1-c1ccccc1C2)N(Cc1ccc2c(c1)OCO2)C1Cc2ccccc2C1 [compound 65, N-(1,3-benzodioxol-5-ylmethyl)-N-(indan-2-yl)-9H-fluorene-4-carboxamide] | < 1 | –
19 | CC(=O)Nc1cccc(-c2ccccc2C(=O)N(Cc2ccccc2)Cc2ccccc2)c1 [compound 35, 3′-(acetylamino)-N,N-dibenzyl-1,1′-biphenyl-2-carboxamide] | < 1 | –

Row | SMILES | Ki (Table I) [µM] | Ki (Table III) [µM]
20 | COc1ccccc1CN(C(=O)c1ccccc1-c1ccsc1)C1Cc2ccccc2C1 [compound 81, N-(indan-2-yl)-N-(2-methoxybenzyl)-2-thien-3-ylbenzamide] | < 1 | –
21 | Cc1ccc(CN(C(=O)c2c(C)cccc2-c2ccccc2)C2Cc3ccccc3C2)cc1 [compound 122, N-(indan-2-yl)-3-methyl-N-(4-methylbenzyl)-1,1′-biphenyl-2-carboxamide] | < 1 | –
22 | Cc1ccc2c(c1)CC(N(Cc1ccccc1)C(=O)c1ccccc1-c1ccccc1)C2 (stereo not shown) [compound 72, N-benzyl-N-(5-methyl-indan-2-yl)-1,1′-biphenyl-2-carboxamide] | < 1 | –
23 | O=C(c1ccccc1-c1ccccc1F)N(Cc1ccccc1)C1CCc2ccccc21 (stereo not shown) [compound 61, N-benzyl-N-(indan-1-yl)-2′-fluoro-1,1′-biphenyl-2-carboxamide] | < 1 | –
24 | O=C(c1ccccc1-c1cccc(F)c1)N(Cc1ccccc1)Cc1ccccc1 [compound 39, N,N-dibenzyl-3′-fluoro-1,1′-biphenyl-2-carboxamide] | < 1 | –
25 | COc1cccc(CN(CCc2ccccc2)C(=O)c2cc(Cl)ccc2-c2ccccc2)c1 [compound 145, 4-chloro-N-(3-methoxybenzyl)-N-(2-phenylethyl)-1,1′-biphenyl-2-carboxamide] | < 1 | –
26 | Cc1cc(CN(Cc2ccccc2)C(=O)c2cc(Cl)ccc2-c2ccccc2)cc(C)c1O [compound 142, N-benzyl-4-chloro-N-(4-hydroxy-3,5-dimethylbenzyl)-1,1′-biphenyl-2-carboxamide] | < 1 | –
27 | Cc1ccc(-c2cccc(C)c2C(=O)N(Cc2ccccc2)C2Cc3ccccc3C2)s1 [compound 115, N-benzyl-N-(indan-2-yl)-2-methyl-6-(5-methylthien-2-yl)benzamide] | < 1 | –
28 | O=C(c1cc(Cl)ccc1-c1ccccc1)N(Cc1ccccc1)Cc1cccc2ccccc12 [compound 146, N-benzyl-4-chloro-N-(1-naphthylmethyl)-1,1′-biphenyl-2-carboxamide] | < 1 | –
29 | Cc1ccc(-c2ccccc2C(=O)N(Cc2ccccc2)Cc2ccccc2)cc1C [compound 40, N,N-dibenzyl-3′,4′-dimethyl-1,1′-biphenyl-2-carboxamide] | < 1 | –
30 | Cc1ccc(-c2ccccc2C(=O)N(Cc2ccc(F)cc2)C2Cc3ccccc3C2)cc1 [compound 91, N-(indan-2-yl)-N-(4-fluorobenzyl)-4′-methyl-1,1′-biphenyl-2-carboxamide] | < 1 | –
31 | Cc1cccc(CN(C(=O)c2ccccc2-c2ccccc2)C2Cc3ccccc3C2)c1 [compound 74, N-(indan-2-yl)-N-(3-methylbenzyl)-1,1′-biphenyl-2-carboxamide] | < 1 | –
32 | COc1ccc2c(c1)CC(N(Cc1ccccc1)C(=O)c1ccccc1-c1ccccc1)C2 (stereo not shown) [compound 71, N-benzyl-N-(5-methoxy-indan-2-yl)-1,1′-biphenyl-2-carboxamide] | < 1 | –
33 | O=C(c1ccccc1-c1ccccc1)N(Cc1ccc(F)cc1)C1Cc2ccccc2C1 [compound 76, N-(indan-2-yl)-N-(4-fluorobenzyl)-1,1′-biphenyl-2-carboxamide] | < 1 | –
34 | O=C(c1ccccc1-c1ccccc1)N(Cc1ccc(F)c(F)c1)C1Cc2ccccc2C1 [compound 80, N-(3,4-difluorobenzyl)-N-(indan-2-yl)-1,1′-biphenyl-2-carboxamide] | < 1 | –
35 | COc1ccc(-c2ccccc2)c(C(=O)N(Cc2ccc(F)cc2)C2Cc3ccccc3C2)c1 [compound 110, N-(indan-2-yl)-N-(4-fluorobenzyl)-4-methoxy-1,1′-biphenyl-2-carboxamide] | < 1 | –
36 | O=C(c1ccccc1-c1ccc(Cl)cc1Cl)N(Cc1ccccc1)Cc1ccccc1 [compound 52, N,N-dibenzyl-2′,4′-dichloro-1,1′-biphenyl-2-carboxamide] | < 1 | –
37 | Cc1cccc(CN(C(=O)c2c(C)cccc2-c2ccccc2)C2Cc3ccccc3C2)c1 [compound 121, N-(indan-2-yl)-3-methyl-N-(3-methylbenzyl)-1,1′-biphenyl-2-carboxamide] | < 1 | –
